From publication PMC5011342, “A high throughput drug screening assay to identify compounds that promote oligodendrocyte differentiation using acutely dissociated and purified oligodendrocyte precursor cells” (BMC Research Notes, 2016)
Where a name gives a salt, the structure may show the parent alone. Read-outs that look alike come from different tables or passages of the source.

Experiments:
[1] = tested on: acutely dissociated and purified rat OPCs; assay: Acute OL differentiation assay (MBP expression/cell, immunofluorescent image quantification); assay type: cell-based; conditions: sheet "All OLga data"; for activation at 0.4 µM / activation at 2 µM / activation at 0.08 µM / activation at 10 µM: Rattus norvegicus
Method in brief: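 Oligodendrocyte precursor cells were enriched from P6-P7 Sprague–Dawley rat brains by immunopanning (RAN-2 and GalC depletion, O4 selection), plated at 5000 cells/well in serum-free, mitogen-free differentiation media on PDL/laminin 96-well view plates, centrifuged at 200×g, and pre-incubated 1–2 h before test compounds were added in quadruplicate. On DIV4, cells were fixed, stained for MBP and DAPI, imaged automatically, and MBP expression per cell was quantified.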

expanded OPCs = assay: cells; conditions: for viability at 0.1 µM / viability at 1 µM / viability at 10 µM: Rattus norvegicus, 72 h
Method in brief: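 Expanded OPCs seeded at 10,000 cells/well in differentiation media, then exposed to NCC library compounds at 10, 1 and 0.1 µM (quadruplicate, 0.1% DMSO) for three days. Viability read as alamarBlue fluorescence (560/590 nm) after 4 h at 37 °C; tunicamycin 5 ng/ml served as toxicity control.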

[2] = 0.4 uM test compound, relative to quetiapine, read-out: OL differentiation, 0.4 uM (% Quet)
[3] = 2 uM test compound, relative to quetiapine, read-out: OL differentiation, 2 uM (% Quet)
[4] = test compound at 0.4 uM, MBP expression relative to quetiapine, NCC library screen, read-out: 0.4 uM (% Quet)
[5] = test compound at 2 uM, MBP expression relative to quetiapine, NCC library screen, read-out: 2 uM (% Quet)
[6] = read-out: 0.1 µM (% DMSO), alamarBlue viability, NCC library compound at 0.1 µM, sheet "All Tox data"
[7] = read-out: 1 µM (% DMSO), alamarBlue viability, NCC library compound at 1 µM, sheet "All Tox data"
[8] = read-out: 10 µM (% DMSO), alamarBlue viability, NCC library compound at 10 µM, sheet "All Tox data"
[9] = alamarBlue viability of expanded OPCs, compound at 0.1 µM, relative to DMSO control
[10] = alamarBlue viability of expanded OPCs, compound at 1 µM, relative to DMSO control
[11] = alamarBlue viability of expanded OPCs, compound at 10 µM, relative to DMSO control
[12] = 10 uM test compound, relative to quetiapine, read-out: OL differentiation, 10 uM (% Quet)
[13] = read-out: 0.1 µM (% DMSO), alamarBlue viability of expanded OPCs, compound at 0.1 µM, sheet All Tox data
[14] = read-out: 1 µM (% DMSO), alamarBlue viability of expanded OPCs, compound at 1 µM, sheet All Tox data
[15] = read-out: 10 µM (% DMSO), alamarBlue viability of expanded OPCs, compound at 10 µM, sheet All Tox data
[16] = test compound at 2 uM, NCC library screen, relative to quetiapine, read-out: 2 uM (% Quet)
[17] = test compound at 10 uM, NCC library screen, relative to quetiapine, read-out: 10 uM (% Quet)

SMILES	activation at 2 µM [1, 3]	viability at 0.1 µM (expanded OPCs; [6])	viability at 1 µM (expanded OPCs; [7])	viability at 10 µM (expanded OPCs; [8])	activation at 10 µM [1, 12]	viability at 0.1 µM (expanded OPCs; [13])	viability at 1 µM (expanded OPCs; [14])	viability at 10 µM (expanded OPCs; [15])	also measured
CO[C@H]1/C=C/O[C@@]2(C)Oc3c(C)c(O)c4c(O)c(c(/C=N/N5CCN(C6CCCC6)CC5)c(O)c4c3C2=O)NC(=O)/C(C)=C\C=C\[C@H](C)[C@H](O)[C@@H](C)[C@@H](O)[C@@H](C)[C@H](OC(C)=O)[C@@H]1C [Rifapentine]	-70.1%	94.8%	73%	25.3%	–	–	–	–	activation at 0.4 µM [1, 2]: -16.7%; activation at 0.4 µM [1, 4]: -18.6%; activation at 2 µM [1, 5]: -118%; 0.1 µM (% DMSO) (expanded OPCs; [9]): 89.9 % DMSO; 1 µM (% DMSO) (expanded OPCs; [10]): 78.4 % DMSO; 10 µM (% DMSO) (expanded OPCs; [11]): 40.0 % DMSO
CO[C@H]1/C=C/O[C@@]2(C)Oc3c(C)c(O)c4c(O)c(c5c(nc6cc(C)ccn65)c4c3C2=O)NC(=O)/C(C)=C\C=C\[C@H](C)[C@H](O)[C@@H](C)[C@@H](O)[C@@H](C)[C@H](OC(C)=O)[C@@H]1C [Rifaximin]	-77.9%	101%	69.4%	21%	–	–	–	–	activation at 0.4 µM [1, 2]: -15.2%
CC(N)C12CC3CC(CC(C3)C1)C2 (centres unmarked) [Rimantadine]	–	–	–	–	–	–	–	–	activation at 0.4 µM [1, 4]: -17.2%; activation at 2 µM [1, 5]: -11.2%; 0.1 µM (% DMSO) (expanded OPCs; [9]): 89.9 % DMSO; 1 µM (% DMSO) (expanded OPCs; [10]): 83.2 % DMSO; 10 µM (% DMSO) (expanded OPCs; [11]): 32.9 % DMSO
C[C@@H]1CN(CCCn2c3ccccc3c3ccccc32)C[C@H](C)N1 [Rimcazole]	–	61.7%	33.6%	9.5%	–	–	–	–	activation at 0.08 µM ([1]; test compound at 0.08 uM, NCC library screen, relative to quetiapine, read-out: 0.08 uM (% Quet)): -5.2%; activation at 0.4 µM ([1]; test compound at 0.4 uM, NCC library screen, relative to quetiapine, read-out: 0.4 uM (% Quet)): 23.1%
Cc1nc2n(c(=O)c1CCN1CCC(c3noc4cc(F)ccc34)CC1)CCCC2 [Risperidone]	2.4%	–	–	–	31.6%	92.3%	99.8%	90.2%	–
CC(C)c1nc(CN(C)C(=O)N[C@H](C(=O)N[C@@H](Cc2ccccc2)C[C@H](O)[C@H](Cc2ccccc2)NC(=O)OCc2cncs2)C(C)C)cs1 [Ritonavir]	-21.7%	–	–	–	-35.8%	96.5%	97.4%	69.8%	–
CN(C)CCc1c[nH]c2ccc(Cn3cncn3)cc12 [Rizatriptan]	-2.6%	–	–	–	-0.44%	110%	94.8%	86.3%	–
CS(=O)(=O)c1ccc(C2=C(c3ccccc3)C(=O)OC2)cc1 [Rofecoxib]	-10.8%	–	–	–	-9%	91.5%	97.2%	115%	–
COc1ccc(C2CNC(=O)C2)cc1OC1CCCC1 (centres unmarked) [Rolipram]	11.2%	–	–	–	-14.2%	97.1%	92.8%	86.8%	–
CN(C)[C@@H]1C(O)=C(C(=O)NCN2CCCC2)C(=O)[C@@]2(O)C(O)=C3C(=O)c4c(O)cccc4[C@@](C)(O)[C@H]3C[C@@H]12 [Rolitetracycline]	–	94.4%	92.4%	69.8%	–	–	–	–	activation at 2 µM [1, 16]: 1.5%; activation at 10 µM [1, 17]: -11.1%
CN(CCOc1ccc(CC2SC(=O)NC2=O)cc1)c1ccccn1 (centres unmarked) [Rosiglitazone maleate]	7.9%	–	–	–	–	95.3%	103%	158%	–
CC(=O)OCC(=O)NCCCOc1cccc(CN2CCCCC2)c1 [Roxatidine acetate]	-1.7%	101%	96%	85.7%	8.2%	–	–	–	–
CN1CCN(c2c(F)cc3c(=O)c(C(=O)O)cn4c3c2SCC4)CC1 [Rufloxacin]	-26.4%	–	–	–	7%	98.3%	89.1%	103%	–
C[C@@H]1O[C@@H](OC[C@H]2O[C@@H](Oc3c(-c4ccc(O)c(O)c4)oc4cc(O)cc(O)c4c3=O)[C@H](O)[C@@H](O)[C@@H]2O)[C@H](O)[C@H](O)[C@H]1O [Rutin]	22.9%	–	–	–	21.3%	106%	108%	106%	–
CN1CC[C@]2(c3cccc(O)c3)Cc3nc4ccccc4cc3C[C@H]2C1 [SB 205607]	–	–	–	–	–	–	–	–	0.4 uM (% Quet) ([1]; test compound at 0.4 uM, NCC library screen, relative to quetiapine): 15.0 % Quet; 2 uM (% Quet) ([1]; test compound at 2 uM, NCC library screen, relative to quetiapine): 5.9 % Quet; 0.1 µM (% DMSO) (expanded OPCs; alamarBlue viability, NCC library compound at 0.1 µM, sheet "All Tox data"): 84.0 % DMSO; 1 µM (% DMSO) (expanded OPCs; alamarBlue viability, NCC library compound at 1 µM, sheet "All Tox data"): 78.4 % DMSO; 10 µM (% DMSO) (expanded OPCs; alamarBlue viability, NCC library compound at 10 µM, sheet "All Tox data"): 50.8 % DMSO
Cl.NC1CCN(c2cccc(Cl)n2)CC1 [SR57227A]	–	–	–	–	–	–	–	–	OL differentiation, 2 uM (% Quet) ([1]; 2 uM test compound, relative to quetiapine): 13.8 % Quet; OL differentiation, 10 uM (% Quet) ([1]; 10 uM test compound, relative to quetiapine): 30.8 % Quet; 0.1 µM (% DMSO) (expanded OPCs; alamarBlue viability of expanded OPCs, compound at 0.1 µM, sheet All Tox data): 85.7 % DMSO; 1 µM (% DMSO) (expanded OPCs; alamarBlue viability of expanded OPCs, compound at 1 µM, sheet All Tox data): 88.3 % DMSO; 10 µM (% DMSO) (expanded OPCs; alamarBlue viability of expanded OPCs, compound at 10 µM, sheet All Tox data): 77.5 % DMSO
CN(C)[C@@H]1C(O)=C(C(N)=O)C(=O)[C@@]2(O)C(O)=C3C(=O)c4c(O)cccc4C[C@H]3C[C@@H]12 [Sancycline]	–	–	–	–	–	–	–	–	activation at 2 µM [1, 16]: 1.8%; activation at 10 µM [1, 17]: 27.4%; 0.1 µM (% DMSO) (expanded OPCs; [9]): 88.7 % DMSO; 1 µM (% DMSO) (expanded OPCs; [10]): 89.0 % DMSO; 10 µM (% DMSO) (expanded OPCs; [11]): 83.0 % DMSO
CC(C)(C)NC(=O)[C@@H]1C[C@@H]2CCCC[C@@H]2CN1C[C@@H](O)[C@H](Cc1ccccc1)NC(=O)[C@H](CC(N)=O)NC(=O)c1ccc2ccccc2n1 [Saquinavir]	-82.7%	95%	88.9%	14.5%	–	–	–	–	activation at 0.4 µM [1, 2]: -24.5%
CN1[C@@H]2C[C@@H](OC(=O)[C@H](CO)c3ccccc3)C[C@H]1[C@@H]1O[C@@H]12 [Scopolamine hydrobromide]	–	–	–	–	–	81.1%	90.5%	88.5%	activation at 0.08 µM ([1]; 0.08 uM test compound, relative to quetiapine, read-out: OL differentiation, 0.08 uM (% Quet)): 21.6%; activation at 0.4 µM [1, 2]: 10.9%
Cc1ncc([N+](=O)[O-])n1CC(C)O (centres unmarked) [Secnidazole]	8.1%	–	–	–	2.5%	97.5%	99.6%	110%	–
